{"source": "patent US20240058328A1", "about": "“MASITINIB FOR THE TREATMENT OF ALZHEIMER'S DISEASE” (AB SCIENCE, priority 2020, published 2024)", "test_system": "patients with Alzheimer's disease", "experiment": "Phase 3 study AB09004: change from baseline in ADCS-ADL score", "assay_type": "in vivo, human", "design": "key to δLSM (ADCS-ADL): LSM difference in ADCS-ADL change; positive = improvement", "details": "4.5 mg/kg/day; for ΔLSM (ADCS-ADL): vs placebo, week 24; for δLSM (ADCS-ADL): week 24 from baseline", "procedure": "An international, multicenter, randomized, double-blind, placebo-controlled phase 3 study was conducted with the objective to evaluate oral masitinib at a dose of 4.5 mg/kg/day as a treatment for Alzheimer's disease.\nEligible patients, aged at least 50 years, were diagnosed with dementia of Alzheimer's type according to Diagnostic and Statistical Manual of Mental Disorders (DSM)-IV criteria, and probable Alzheimer's disease according to NINCDS-ADRDA (National Institute of Neurological and Communicative Diseases and Stroke/Alzheimer's Disease and Related Disorders Association) criteria. […] Patients with any other cause of dementia not due to Alzheimer's disease were ineligible for the study.\nEligible patients were treated during 24 weeks with masitinib at a dose of 4.5 mg/kg/day (mg per kilo body weight per day) or with placebo. Treatment was administered as add-on therapy in patients who had been treated for a minimum of 6 months with a stable dose of cholinesterase inhibitors (donepezil, rivastigmine or galantamine) and/or memantine, with no changes foreseen in therapy throughout the study.\nPrimary analysis was based on the co-primary endpoints of: • Change from baseline in Alzheimer's Disease Cooperative Study Activities of Daily Living (ADCS-ADL) score. The ADCS-ADL assesses the competence of patients with Alzheimer's disease in basic and instrumental activities of daily living (ADLs). • Change from baseline in Alzheimer's Disease Assessment Scale-Cognitive Subscale (ADAS-Cog). The ADAS-Cog assesses cognition and memory.\nTreatment effect (masitinib versus placebo) was assessed based on absolute change from baseline to week 24 by using an analysis of covariance model (ANCOVA linear model) with the following factors: treatment, baseline value, and stratification criteria of baseline MMSE score, age, ADCS-ADL total score, and ADAS-Cog total score.\nFor ADCS-ADL, the global score (i.e., the sum of 23 items rated by the caregiver) was used with a range from 0 to 78, wherein 78 implies full functioning with no impairment. Thus, a higher score signifies greater functional ability, while a lower score signifies greater (worse) impairment. Results are expressed as a least-squares means difference (δLSM) of absolute change in ADCS-ADL score from baseline; that is to say, the change over time in the ADCS-ADL score, or in other words the difference between the ADCS-ADL score at baseline (before treatment initiation) and the ADCS-ADL score after treatment with masitinib or with placebo. An increase in ADCS-ADL score with respect to baseline (i.e., a positive δLSM) indicates an improvement in the patient and therefore disease stability, whereas a decrease in ADCS-ADL score with respect to baseline (i.e., negative δLSM) indicates a worsening in the patient and therefore disease progression. Treatment-effect is reported as the difference between treatment-arms (ΔLSM) (calculated as δLSM[masitinib] minus δLSM[placebo]), with a positive value indicating a beneficial effect of treatment with masitinib as compared to treatment with placebo. In a scenario where both treatment-arms show worsening in activities of daily living (i.e., a negative δLSM), then a positive ΔLSM indicates a beneficial treatment effect for masitinib, i.e., the rate of decline in masitinib treated patients is slower than that of patients from the placebo-arm.\nThe comparison was carried out using the following information: • δLSM: least-squares means difference of absolute change in endpoint score at week 24 from baseline, either according to ADAS-Cog assessment or to ADCS-ADL assessment. • ΔLSM: Difference between treatment-arms (treatment-effect) calculated as δLSM[masitinib] minus δLSM[placebo]. • Δsub/Δoverall: Ratio of subpopulation's placebo-controlled treatment-effect (ΔLSM at W24 for masitinib 4.5 mg/kg/d parallel arm) versus overall study population's placebo-controlled treatment-effect (ΔLSM at W24 for masitinib 4.5 mg/kg/d parallel arm). […]", "key": {"[1]": {"details": "Baseline ADCS-ADL >47 (Table 11)"}}, "data": [{"smiles": "Cc1ccc(NC(=O)c2ccc(CN3CCN(C)CC3)cc2)cc1Nc1nc(-c2cccnc2)cs1", "note": "[masitinib, 4-(4-methylpiperazin-1-ylmethyl)-N-[4-methyl-3-(4-pyridin-3ylthiazol-2-ylamino)phenyl]benzamide]", "values": [{"measurement": "ΔLSM (ADCS-ADL)", "setting": "Baseline ADAS-Cog >35", "value": "−0.788", "unit": "points"}, {"measurement": "ΔLSM (ADCS-ADL)", "setting": "Baseline ADCS-ADL <32", "value": "−0.9123", "unit": "points"}, {"measurement": "δLSM (ADCS-ADL)", "setting": "Baseline ADCS-ADL <32", "value": 0.8656}, {"measurement": "ΔLSM (ADCS-ADL)", "setting": "Baseline ADCS-ADL <35", "value": 0.2942, "unit": "points"}, {"measurement": "δLSM (ADCS-ADL)", "setting": "Baseline ADCS-ADL <35", "value": 0.9816}, {"measurement": "ΔLSM (ADCS-ADL)", "setting": "Baseline ADCS-ADL <38", "value": "−0.2109", "unit": "points"}, {"measurement": "δLSM (ADCS-ADL)", "setting": "Baseline ADCS-ADL <38", "value": 1.9901}, {"measurement": "ΔLSM (ADCS-ADL)", "setting": "Baseline ADCS-ADL <41", "value": 1.0592, "unit": "points"}, {"measurement": "δLSM (ADCS-ADL)", "setting": "Baseline ADCS-ADL <41", "value": 3.2426}, {"measurement": "ΔLSM (ADCS-ADL)", "setting": "Baseline ADCS-ADL <47", "value": 0.9542, "unit": "points"}, {"measurement": "δLSM (ADCS-ADL)", "setting": "Baseline ADCS-ADL <47", "value": 2.0776}, {"measurement": "ΔLSM (ADCS-ADL)", "setting": "Baseline ADCS-ADL <50", "value": "+0.3062 points"}, {"measurement": "ΔLSM (ADCS-ADL)", "setting": "Baseline ADCS-ADL <50, listed as M4.5, 4.5 mg/kg/day", "value": 0.3062, "unit": "points"}, {"measurement": "δLSM (ADCS-ADL)", "setting": "Baseline ADCS-ADL <50", "value": 1.5300}, {"measurement": "ΔLSM (ADCS-ADL)", "setting": "Baseline ADCS-ADL >39", "value": "+2.0733 points"}, {"measurement": "ΔLSM (ADCS-ADL)", "setting": "Baseline ADCS-ADL >39, listed as M4.5, 4.5 mg/kg/day", "value": 2.0733, "unit": "points"}, {"measurement": "δLSM (ADCS-ADL)", "setting": "Baseline ADCS-ADL >39", "value": 0.6655}, {"measurement": "ΔLSM (ADCS-ADL)", "setting": "[1]", "value": 2.1676, "unit": "points"}, {"measurement": "δLSM (ADCS-ADL)", "setting": "[1]", "value": 1.0869}, {"measurement": "ΔLSM (ADCS-ADL)", "setting": "Baseline ADCS-ADL >55", "value": "+3.1871 points"}, {"measurement": "ΔLSM (ADCS-ADL)", "setting": "Baseline ADCS-ADL >55, listed as M4.5, 4.5 mg/kg/day", "value": 3.1871, "unit": "points"}, {"measurement": "δLSM (ADCS-ADL)", "setting": "Baseline ADCS-ADL >55", "value": 0.8306}, {"measurement": "ΔLSM (ADCS-ADL)", "setting": "Baseline ADCS-ADL ≤39", "value": "+0.7132 points"}, {"measurement": "ΔLSM (ADCS-ADL)", "setting": "Baseline ADCS-ADL ≤39, listed as M4.5, 4.5 mg/kg/day", "value": 0.7132, "unit": "points"}, {"measurement": "δLSM (ADCS-ADL)", "setting": "Baseline ADCS-ADL ≤39", "value": 2.8513}, {"measurement": "ΔLSM (ADCS-ADL)", "setting": "Baseline ADCS-ADL ≤55", "value": "+0.4577 points"}, {"measurement": "ΔLSM (ADCS-ADL)", "setting": "Baseline ADCS-ADL ≤55, listed as M4.5, 4.5 mg/kg/day", "value": 0.4577, "unit": "points"}, {"measurement": "δLSM (ADCS-ADL)", "setting": "Baseline ADCS-ADL ≤55", "value": 1.3484}, {"measurement": "ΔLSM (ADCS-ADL)", "setting": "Baseline ADCS-ADL ≥32", "value": 1.9799, "unit": "points"}, {"measurement": "δLSM (ADCS-ADL)", "setting": "Baseline ADCS-ADL ≥32", "value": 0.9536}, {"measurement": "ΔLSM (ADCS-ADL)", "setting": "Baseline ADCS-ADL ≥35", "value": 2.0209, "unit": "points"}, {"measurement": "δLSM (ADCS-ADL)", "setting": "Baseline ADCS-ADL ≥35", "value": 0.9909}, {"measurement": "ΔLSM (ADCS-ADL)", "setting": "Baseline ADCS-ADL ≥38", "value": "+2.3285 points"}, {"measurement": "ΔLSM (ADCS-ADL)", "setting": "Baseline ADCS-ADL ≥38, listed as M4.5, 4.5 mg/kg/day", "value": 2.3285, "unit": "points"}, {"measurement": "δLSM (ADCS-ADL)", "setting": "Baseline ADCS-ADL ≥38", "value": 1.0071}, {"measurement": "ΔLSM (ADCS-ADL)", "setting": "Baseline ADCS-ADL ≥41", "value": 2.0192, "unit": "points"}, {"measurement": "δLSM (ADCS-ADL)", "setting": "Baseline ADCS-ADL ≥41", "value": 0.8077}, {"measurement": "ΔLSM (ADCS-ADL)", "setting": "Baseline ADCS-ADL ≥47", "value": 2.1676, "unit": "points"}, {"measurement": "δLSM (ADCS-ADL)", "setting": "Baseline ADCS-ADL ≥47", "value": 1.0869}, {"measurement": "ΔLSM (ADCS-ADL)", "setting": "Baseline ADCS-ADL ≥50", "value": "+3.2315 points"}, {"measurement": "ΔLSM (ADCS-ADL)", "setting": "Baseline ADCS-ADL ≥50, listed as M4.5, 4.5 mg/kg/day", "value": 3.2315, "unit": "points"}, {"measurement": "δLSM (ADCS-ADL)", "setting": "Baseline ADCS-ADL ≥50", "value": 0.7638}, {"measurement": "ΔLSM (ADCS-ADL)", "setting": "MMSE <13", "value": "−9.2849", "unit": "points"}, {"measurement": "δLSM (ADCS-ADL)", "setting": "MMSE <13", "value": "−10.9758"}, {"measurement": "ΔLSM (ADCS-ADL)", "setting": "MMSE <14", "value": "−3.5751", "unit": "points"}, {"measurement": "δLSM (ADCS-ADL)", "setting": "MMSE <14", "value": "−4.6507"}, {"measurement": "ΔLSM (ADCS-ADL)", "setting": "MMSE <15", "value": "−0.5657", "unit": "points"}, {"measurement": "δLSM (ADCS-ADL)", "setting": "MMSE <15", "value": "−3.1413"}, {"measurement": "ΔLSM (ADCS-ADL)", "setting": "MMSE <16", "value": "−0.6926", "unit": "points"}, {"measurement": "δLSM (ADCS-ADL)", "setting": "MMSE <16", "value": "−2.3199"}, {"measurement": "ΔLSM (ADCS-ADL)", "setting": "MMSE <17", "value": 0.5605, "unit": "points"}, {"measurement": "δLSM (ADCS-ADL)", "setting": "MMSE <17", "value": "−1.0314"}, {"measurement": "ΔLSM (ADCS-ADL)", "setting": "MMSE [12-20]", "value": "+1.3770 points"}, {"measurement": "ΔLSM (ADCS-ADL)", "setting": "MMSE [12-20], listed as M4.5, 4.5 mg/kg/day", "value": 1.3770, "unit": "points"}]}]}
